Our source for the IC50 and viability, T/C values is PubChem BioAssay AID1963973 (Molecular Pharmacology Branch, DTP, NCI, 2024).

Several values for one entry are separate records, joined by “and”; a condition that tells them apart may be missing. Equal values may be shown once.

This assay has as its system 883617-216-R-J1-PDC tumor spheroids, viability. The experiment in a line: Anticancer human tumor 883617-216-R-J1-PDC patient-derived bladder carcinoma cell line growth inhibition [PI3K]. The conditions noted are these: spheroids with HUVEC and MSC; for viability, T/C: stronger effect = lower value. The source says: Combinatorial screen of targeted agents with the PI3K inhibitors inavolisib, alpelisib, duvelisib, and copanlisib in multi-cell type tumor spheroids
A high-throughput screen of multi-cell type tumor spheroids was designed to identify active combinations of targeted small molecules and PI3K pathway inhibitors. Complex spheroids include a stromal component modeled by human endothelial cells (HUVEC) and fibroblasts modeled by human mesenchymal stem cells (MSCs). The concentration ranges selected for each drug and investigational agent were based upon clinically achievable concentrations if the clinical Cmax of the agent was known.
Compounds. The drugs and investigational agents: inavolisib (NSC800729), alpelisib (NSC765974), duvelisib (NSC772469), copanlisib (NSC816437), ipatasertib (NSC767898), afuresertib (NSC778305), talazoparib (NSC767125), sapanisertib (NSC764658), selumetinib (NSC741078), tovorafenib (DAY101, NSC766906), vemurafenib (NSC761431), ravoxertinib (NSC781343), sotorasib (NSC818433), MRTX1133 (NSC 836407), abemaciclib (NSC 768073), palbociclib (NSC758247), venetoclax (NSC 766270), SY5609 (NSC837396), enzalutamide (NSC755605), and darolutamide (NSC825331), were obtained from the National Cancer Institute (NCI) Developmental Therapeutics Program Chemical Repository. The FDA-approved anticancer drug set is available from the NCI Developmental Therapeutics Program. […] The stock solutions were prepared in dimethyl sulfoxide (DMSO, Sigma-Aldrich, St. Louis, MO, cat. D2650) at 800-fold the tested concentration and stored at -70 degrees C prior to their use. All drugs and investigational agents were tested over a range starting from a high concentration at or near the clinical Cmax and decreasing in half-log increments. If the clinical Cmax for an agent had not been determined, the highest concentration tested was 10 microM.
Cell Culture. All cells were maintained in an incubator at 37 degrees C and 5% CO2 with 95% humidity. The PDC lines were cultured according to standard operating procedures established by the NCI PDMR (https://pdmr.cancer.gov/sops/default.htm). All PDCs were thawed and cultured in Matrigel-coated flasks prepared with a working solution of 1X Ham's F-12 nutrient mix, without supplementation (Invitrogen, Waltham, MA, cat. 11765054), 100 U/mL penicillin-streptomycin (Invitrogen, cat. 15140122), and 2.5% Matrigel (Corning Inc., Corning, NY, cat. 354248) for the first three passages. The 354836-022-R-J1-PDC, 475296-252-R-J1-PDC, and 997726-040-R-J2-PDC lines were cultured in 6A media, which includes advanced DMEM/F-12 (Thermo Fisher Scientific, cat. 12634028), 10 mM HEPES (Thermo Fisher Scientific, cat. 15630080), 1X GlutaMAX supplement (Thermo Fisher Scientific, cat. 35050061), 0.1 mg/mL primocin (InvivoGen, San Diego, CA, cat. ant-pm-2), 10% defined fetal bovine serum, heat inactivated (HyClone Laboratories Inc., Logan, UT, cat. SH30070.03HI), 50% L-WRN conditioned media (ATCC, cat. CRL-3276), 1.25 mM N-Acetyl-L-cysteine (Sigma-Aldrich, cat. A9165), 10 mM nicotinamide (Sigma-Aldrich, cat. N0636), 1X B-27 supplement (Thermo Fisher Scientific, cat. 17504044), 1X N-2 supplement (Thermo Fisher Scientific, cat. 17502048), and 10 microM Y-27632 dihydrochloride (Tocris Bioscience, Bristol, United Kingdom, cat. 1254). The 624824-186-R-J2-PDC line was cultured in 6C/Colon 1B media, which includes all 6A media components plus 50 ng/mL human EGF recombinant protein (Thermo Fisher Scientific, cat. PHG0311). […]
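Also: spheroids exposed to agents for 7 days before the viability read.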

Broadly, the IC50 is the concentration needed to halve the response being measured. As a reminder, the viability, T/C is the result in the treated group divided by that in the control group, in per cent. Consider `CC1(C)CCC(CN2CCN(c3ccc(C(=O)NS(=O)(=O)c4ccc(NCC5CCOCC5)c([N+](=O)[O-])c4)c(Oc4cnc5[nH]ccc5c4)c3)CC2)=C(c2ccc(Cl)cc2)C1` + CC(Nc1ncnc2nc[nH]c12)c1cc2cccc(Cl)c2c(=O)n1-c1ccccc1, for which the IC50 runs as follows: (curve of first compound, second compound 0.0316 µM) > 10 µM; (curve of first compound, second compound 0.1 µM) > 10 µM; (curve of first compound, second compound 0.316 µM) 8.99 µM; (curve of first compound, second compound 1 µM) 7.69 µM; (curve of first compound, second compound 3.16 µM) 6.4 µM; (curve of first compound, second compound 10 µM) < 0.0316 µM. The viability, T/C (second compound 0.0316 µM, first compound 0.0316 µM) is 93.1%; the viability, T/C (second compound 0.0316 µM, first compound 0.1 µM) is 87.2%; the viability, T/C (second compound 0.0316 µM, first compound 0.316 µM) is 93.8%; the viability, T/C (second compound 0.0316 µM, first compound 1 µM) is 87.7%; the viability, T/C (second compound 0.0316 µM, first compound 3.16 µM) was 87%; the viability, T/C (second compound 0.0316 µM, first compound 10 µM) was 50.8%. Further, the viability, T/C by setting is: (second compound 0.1 µM, first compound 0.0316 µM) 97%; (second compound 0.1 µM, first compound 0.1 µM) 84.3%; (second compound 0.1 µM, first compound 0.316 µM) 91.7%; (second compound 0.1 µM, first compound 1 µM) 97.5%; (second compound 0.1 µM, first compound 3.16 µM) 90.8%; (second compound 0.1 µM, first compound 10 µM) 52%. The viability, T/C runs as follows: (second compound 0.316 µM, first compound 0.0316 µM) 94.7%; (second compound 0.316 µM, first compound 0.1 µM) 96.2%; (second compound 0.316 µM, first compound 0.316 µM) 92%; (second compound 0.316 µM, first compound 1 µM) 88%; (second compound 0.316 µM, first compound 3.16 µM) 76.6%; (second compound 0.316 µM, first compound 10 µM) 46.9%. Besides, the viability, T/C by setting is: (second compound 1 µM, first compound 0.0316 µM) 85.2%; (second compound 1 µM, first compound 0.1 µM) 85.8%; (second compound 1 µM, first compound 0.316 µM) 88%; (second compound 1 µM, first compound 1 µM) 79.3%; (second compound 1 µM, first compound 3.16 µM) 70.1%; (second compound 1 µM, first compound 10 µM) 44.2%. Besides, the viability, T/C is 62.6% (second compound 3.16 µM, first compound 0.0316 µM); 76% (second compound 3.16 µM, first compound 0.1 µM); 62.6% (second compound 3.16 µM, first compound 0.316 µM); 65.7% (second compound 3.16 µM, first compound 1 µM); 59.2% (second compound 3.16 µM, first compound 3.16 µM); 44.1% (second compound 3.16 µM, first compound 10 µM). The viability, T/C is, setting by setting: (second compound 10 µM, first compound 0.0316 µM) 49%; (second compound 10 µM, first compound 0.1 µM) 52.6%; (second compound 10 µM, first compound 0.316 µM) 46.3%; (second compound 10 µM, first compound 1 µM) 40.3%; (second compound 10 µM, first compound 3.16 µM) 46.1%; (second compound 10 µM, first compound 10 µM) 28.3%.
For the compound `C#Cc1c(F)ccc2cc(O)cc(-c3ncc4c(N5CC6CCC(C5)N6)nc(OCC56CCCN5CC(F)C6)nc4c3F)c12` (stereo unspecified), the viability, T/C runs as follows: (compound 0.0316 µM) 99.5% [middle of 4 runs]; (compound 0.1 µM) 95.7% [middle of 4 runs]; (compound 0.316 µM) 100% [middle of 4 runs]; (compound 1 µM) 88% [middle of 4 runs]; (compound 3.16 µM) 80.5% (2×) and 102% and 88.1%; (compound 10 µM) 65.8% [middle of 4 runs]. In addition, where the note is “curve of compound”, the IC50 is > 10 µM.
For `CC(C)n1nc(-c2ccc3oc(N)nc3c2)c2c(N)ncnc21`, the viability, T/C is 95.2% [middle of 4 runs] (compound 0.000316 µM); 90.4% [middle of 4 runs] (compound 0.001 µM); 87.5% [middle of 4 runs] (compound 0.00316 µM); 73% [middle of 4 runs] (compound 0.01 µM); 47.2% [middle of 4 runs] (compound 0.0316 µM); 20.2% [middle of 4 runs] (compound 0.1 µM). For the same compound, where the note is “curve of compound”, the IC50 was 27.6 nM [middle of 4 runs].
